Test results published in article PMC9133036 (Nature Communications, 2022).
Where “and” joins values, the source holds several entries; their conditions need not be identical. Identical values can stand only once. Each block holds one compound with its values, some of them ahead of it.

What was measured:
Type in all cases: cell-based
OX2R N324A = target: T1, OX2R N324A (Homo sapiens, UniProt O43614, N324A); experiment: IP accumulation assay, OX2R N324A;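 for % IP accumulation: 100% equals the maximal response of wild-type OX2R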
T1 construct: FLAG; expressed in transfected cells; host or cells: HEK293
T1 sequence (O43614 1-444 N324A): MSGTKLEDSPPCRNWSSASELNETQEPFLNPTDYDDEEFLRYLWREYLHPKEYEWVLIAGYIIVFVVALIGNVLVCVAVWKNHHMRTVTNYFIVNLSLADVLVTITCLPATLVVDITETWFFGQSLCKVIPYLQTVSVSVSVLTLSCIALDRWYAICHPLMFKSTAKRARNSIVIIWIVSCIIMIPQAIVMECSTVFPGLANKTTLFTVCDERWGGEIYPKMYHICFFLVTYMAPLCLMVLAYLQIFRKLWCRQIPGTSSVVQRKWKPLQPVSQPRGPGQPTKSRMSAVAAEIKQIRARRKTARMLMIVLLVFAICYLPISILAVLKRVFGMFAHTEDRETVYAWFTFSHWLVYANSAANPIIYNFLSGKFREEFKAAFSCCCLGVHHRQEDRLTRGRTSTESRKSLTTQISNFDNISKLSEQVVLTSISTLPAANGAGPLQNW
From the text: (§1) The IP assay was adapted from a prior precedent. HEK293 cells were maintained in DMEM-high glucose (Millipore Sigma) supplemented with 5% fetal bovine serum (Corning) and penicillin-streptomycin (Millipore Sigma). Receptor constructs used were the full-length wild-type (or mutant) human OX1R and OX2R sequences cloned into pCDNA3. To enhance the Emax in the IP assay, a plasmid encoding full-length human Gαq subunit[66] was co-transfected into HEK293 cells with plasmids encoding orexin receptor constructs using Lipofectamine 3000 (Thermo Fisher). 24 h after transfection, the cells were plated on poly-D-lysine coated (Millipore Sigma) tissue culture-treated 96 well white plates with clear bottoms (Perkin Elmer) at 30,000 cells per well in Inositol-free DMEM (MP Biomedicals) supplemented with 5% fetal bovine serum, 4 mM L-glutamine (Millipore Sigma), penicillin-streptomycin, and about 5 uCi (5 ul) per ml myo-[2-3H] inositol (Perkin Elmer). The following day, the media was replaced with agonists that were diluted in HBSS (Millipore Sigma) containing 10 mM lithium chloride (Millipore Sigma) and incubated at 37 °C for 45 min. Then agonists were removed and cells were lysed on ice for 30 min with 10 mM formic acid (Millipore Sigma). 1.25 mg of poly-lysine coated YSI SPA beads (Perkin Elmer) was added to each well. The plates were mixed on an orbital shaker for 30 min. The plates were read on a MicroBeta scintillation counter (Perkin Elmer) the following day. IP accumulation assays on different constructs were performed in n ≥ 3 independent experiments (each done in duplicate), where n is shown in Supplementary Table 2.

OX2R1-406 = target: T2, OX2R1-406 (Homo sapiens, UniProt O43614); experiment: IP accumulation assay, C-terminally truncated OX2R1-406; settings: for % IP accumulation: OX2R C25 short; for Emax: relative to OX2R WT with the same ligand;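 for % IP accumulation: 100% is the full-length wild-type OX2R maximal IP response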
T2 construct: the receptor construct contained residues 1–406 of wild-type human OX2R; expressed in transfected cells; host or cells: HEK293
T2 sequence (O43614 1-406): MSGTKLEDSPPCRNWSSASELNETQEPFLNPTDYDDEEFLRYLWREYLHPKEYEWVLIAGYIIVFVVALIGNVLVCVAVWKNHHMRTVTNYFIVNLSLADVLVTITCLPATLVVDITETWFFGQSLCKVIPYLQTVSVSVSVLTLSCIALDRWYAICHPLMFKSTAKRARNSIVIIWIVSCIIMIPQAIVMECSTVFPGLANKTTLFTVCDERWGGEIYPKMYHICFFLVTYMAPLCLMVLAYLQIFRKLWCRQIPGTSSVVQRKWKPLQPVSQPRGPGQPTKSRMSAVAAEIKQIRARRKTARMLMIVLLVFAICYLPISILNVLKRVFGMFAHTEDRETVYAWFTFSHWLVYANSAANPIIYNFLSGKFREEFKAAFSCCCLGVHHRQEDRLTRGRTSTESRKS
Procedure: The cloning, expression, purification, cryo-EM data collection, and structure determination for the two OX2R-G protein complexes described in this paper were carried out independently. For the OX2R-mGsqiN complex the receptor construct contained residues 1–406 of wild-type human OX2R (OX2R^1–406). […] The resulting construct was cloned into a modified pFastBac (ThermoFisher) baculovirus expression vector with the HA signal sequence followed by a FLAG tag at the N-terminus. We were unable to isolate a stable complex between OX2R and full-length wild-type Gαq using the co-expression and purification strategy described below. Instead, an engineered Gαq construct called mGαsqiN was made by modifying the chimeric Gα protein ‘mini-Gs/q71’ previously described. Briefly, the linker […] was deleted and residues 1–27 at the N terminus was replaced by residues 1–30 of Gαi1. A second pFastBac baculovirus was made with this mini-GαqiN gene. An additional pFastBac-Dual baculovirus was made with human Gβ1 and human […] genes. An 8xHis tag was placed at the N-terminus of […]. […] After 48 h, cells were harvested and stored at −80 °C.
as §1

OX2R V114A = target: T3, OX2R V114A (Homo sapiens, UniProt O43614, V114A); experiment: β-arrestin PathHunter assay, OX2R V114A
T3 construct: expressed in transfected cells; host or cells: CHO-K1 stably expressing EA β-arrestin2
T3 sequence (O43614 whole entry V114A): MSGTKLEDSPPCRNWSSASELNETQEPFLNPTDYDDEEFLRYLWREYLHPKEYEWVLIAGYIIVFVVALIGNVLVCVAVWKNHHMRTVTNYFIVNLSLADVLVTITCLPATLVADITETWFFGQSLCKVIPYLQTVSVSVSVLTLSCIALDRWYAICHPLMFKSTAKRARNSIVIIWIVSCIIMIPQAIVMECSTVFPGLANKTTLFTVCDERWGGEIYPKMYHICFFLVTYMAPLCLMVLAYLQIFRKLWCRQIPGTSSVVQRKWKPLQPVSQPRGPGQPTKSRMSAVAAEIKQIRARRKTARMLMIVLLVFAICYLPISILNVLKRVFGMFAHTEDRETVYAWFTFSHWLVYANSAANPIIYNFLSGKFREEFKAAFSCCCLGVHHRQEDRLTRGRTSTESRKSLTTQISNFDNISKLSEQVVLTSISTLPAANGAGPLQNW
Procedure: β-Arrestin recruitment activity was measured by using the PathHunter system (DiscoveRX) according to the manufacturer’s instruction. Receptor constructs used were the full-length wild-type (or mutant) human OX2R sequences cloned into pCMV-ProLink (DiscoveRX). CHO-K1 cells stably expressing EA β-arrestin2 (DiscoveRX) were plated on 384 well white plates (Thermo Fisher) at 4000 cells/well in HamF12 (Wako Pure Chemical Industries) supplemented with 10% fetal bovine serum (Corning) and penicillin-streptomycin (Wako Pure Chemical Industries) and incubated overnight at 37 °C under 5% CO2. Cells were transfected with plasmids encoding wild type or each mutant ProLink-tagged human OX2R using FuGENE HD (Promega). […] Detection reagent was added and incubated for 1 h at room temperature. Luminescent signal was detected using an EnVision plate reader (PerkinElmer). β-arrestin assays on different constructs were performed in two or three independent experiments (each done in quadruplicate). Dose response curves (shown in Supplementary Fig. 8) were fitted to the three-parameter model ‘log(agonist) vs response’ in GraphPad Prism to determine pEC50 values.

[1] = OXB conc (log, M) -6.95, listed as OXB
[2] = OXB conc (log, M) -7.43, listed as OXB
[3] = OXB conc (log, M) -7.91, listed as OXB
[4] = OXB conc (log, M) -8.39, listed as OXB
[5] = OXB conc (log, M) -9.82, listed as OXB
[6] = OXB conc (log, M) -10.29, listed as OXB

- EC50 (OX2R N324A; IP accumulation): 18 nM
- % IP accumulation (OX2R N324A; TAK-925 conc (log, M) -4.52): 38.90% and 50.17% and 61.68%
- % IP accumulation (OX2R N324A; TAK-925 conc (log, M) -5.00): 44.83% and 48.29% and 62.09%
- % IP accumulation (OX2R N324A; TAK-925 conc (log, M) -5.48): 54.68% and 49.83% and 60.54%
- % IP accumulation (OX2R N324A; TAK-925 conc (log, M) -5.95): 62.62% and 51.37% and 66.38%
- % IP accumulation (OX2R N324A; TAK-925 conc (log, M) -6.43): 60.89% and 49.04% and 58.43%
- % IP accumulation (OX2R N324A; TAK-925 conc (log, M) -6.91): 55.51% and 43.02% and 53.52%
- % IP accumulation (OX2R N324A; TAK-925 conc (log, M) -7.39): 29.79% and 34.77% and 41.19%
- % IP accumulation (OX2R N324A; TAK-925 conc (log, M) -7.86): 20.98% and 26.21% and 25.22%
- % IP accumulation (OX2R N324A; TAK-925 conc (log, M) -8.34): 10.23% and 11.60% and 16.93%
- % IP accumulation (OX2R N324A; TAK-925 conc (log, M) -8.82): 0.00% and 5.30%
- % IP accumulation (OX2R N324A; TAK-925 conc (log, M) -9.29): 0.24% and 0.00% and 4.28%
- Emax (OX2R N324A; relative to OX2R WT/TAK-925): 55
- EC50 (OX2R1-406; IP accumulation): 5.4 nM
- Emax (OX2R1-406): 100
- EC50 (OX2R V114A; β-arrestin recruitment): 2200 nM
Compound: COC(=O)N1CCC[C@H](NS(C)(=O)=O)[C@@H]1CO[C@H]1CC[C@@H](c2ccccc2)CC1 [TAK-925, methyl (2R,3S)−3-[(methylsulfonyl)amino]−2-{[(cis−4-phenylcyclohexyl)oxy]methyl}piperidine-1-carboxylate]
- % IP accumulation (OX2R1-406; TAK-925 conc (log, M) -7.39): 102.09% and 80.64% and 87.71% and 69.65% and 70.45% and 93.38%
- % IP accumulation (OX2R1-406; TAK-925 conc (log, M) -7.86): 87.29% and 59.28% and 70.66% and 54.93% and 62.49% and 77.19%

Compound: orexin B
- activation of the mutant receptor (OX2R N324A; Gq signaling, IP accumulation): fails to activate
- % IP accumulation (OX2R N324A; [1]): 32.75% and 37.01% and 40.09%
- % IP accumulation (OX2R N324A; [2]): 25.51% and 22.88% and 29.36%
- % IP accumulation (OX2R N324A; [3]): 19.13% and 21.90% and 18.40%
- % IP accumulation (OX2R N324A; [4]): 9.56% and 13.73% and 13.07%
- % IP accumulation (OX2R N324A; OXB conc (log, M) -8.86, listed as OXB): 3.38% and 9.31% and 7.17%
- % IP accumulation (OX2R N324A; OXB conc (log, M) -9.34, listed as OXB): 7.35% and 10.16% and 5.28%
- % IP accumulation (OX2R N324A; [5]): 3.06% and 4.95% and 0.00%
- % IP accumulation (OX2R N324A; [6]): 0.00% and 2.10%
- % IP accumulation (OX2R1-406; [1]): 116.05% and 97.72% and 102.67% and 64.00% and 80.15% and 76.35% and 110.96%
- % IP accumulation (OX2R1-406; [2]): 91.34% and 86.13% and 87.29% and 57.27% and 82.96% and 71.01% and 111.84%
- % IP accumulation (OX2R1-406; [3]): 79.86% and 83.63% and 74.72% and 64.39% and 71.59% and 62.47% and 94.62%
- % IP accumulation (OX2R1-406; [4]): 46.18% and 59.23% and 44.98% and 53.61% and 63.91% and 47.69% and 72.05%
- % IP accumulation (OX2R1-406; [5]): 4.24% and 6.17% and 0.00% and 5.40% and 1.80% and 6.02% and 6.79%
- % IP accumulation (OX2R1-406; [6]): 0.00% and 3.23%
- Emax (OX2R1-406): 100
- beta-arrestin recruitment fold change (OX2R V114A; V114A, OxB concentration -8.00 (log, M), listed as OxB): 1.594 fold and 2.704 fold and 1.365 fold and 1.888 fold
